Results as given in patent publication US20070049564A1 (Wyeth, priority 2005, published 2007).
≈ marks a conversion by molar mass, not a printed value. Like-named read-outs stand apart in the source and are kept apart here.

Assays:
E. coli GC 1073 = experiment: MIC, broth microdilution; conditions: Escherichia coli
E. coli GC 2270 = experiment: MIC, broth microdilution; conditions: Escherichia coli
E. coli GC 3226 = experiment: MIC, broth microdilution; conditions: Escherichia coli
E. coli GC 2271 = experiment: MIC, broth microdilution; conditions: Escherichia coli
E. coli GC 2233 = experiment: MIC, broth microdilution; conditions: Escherichia coli
E. coli = experiment: Range of MIC for E. coli strains; conditions: Escherichia coli
E. coli GC 2236 = experiment: MIC, broth microdilution; conditions: Escherichia coli
S. pyogenes GC 4563 = experiment: MIC, broth microdilution; conditions: Streptococcus pyogenes
Staph. = experiment: Range of MIC for Staph. strains, including MRSA; conditions: Staphylococcus aureus
S. aureus GC 6335 = experiment: MIC, broth microdilution; conditions: Staphylococcus aureus
E. faecium GC 4556 = experiment: MIC, broth microdilution; conditions: Enterococcus faecium
S. aureus GC 1079 = experiment: MIC, broth microdilution; conditions: Staphylococcus aureus
E. faecium GC 2243 = experiment: MIC, broth microdilution; conditions: Enterococcus faecium
c. albicans GC 3066 = experiment: MIC, broth microdilution
S. aureus GC 6469 = experiment: MIC, broth microdilution; conditions: Staphylococcus aureus
S. agalactiae GC 4564 = experiment: MIC, broth microdilution; conditions: Streptococcus agalactiae
E. coli GC 2235 = experiment: MIC, broth microdilution; conditions: Escherichia coli
S. typhimurium GC 2172 = experiment: MIC, broth microdilution; conditions: Salmonella enterica, TYPHIMURIUM
E. faecalis GC 2265 = experiment: MIC, broth microdilution; conditions: Enterococcus faecalis
E. faecalis GC 4555 = experiment: MIC, broth microdilution; conditions: Enterococcus faecalis

CCC(C)(C)C(=O)OCOC(=O)N(CC(=O)Nc1cc(N(C)C)c2c(c1O)C(=O)C1=C(O)[C@]3(O)C(=O)C(C(N)=O)=C(O)[C@@H](N(C)C)[C@@H]3C[C@@H]1C2)C(C)(C)C [Example 44, ({[(2-{[(5aR,6aS,7S,10aS)-9-(aminocarbonyl)-4,7-bis(dimethylamino)-1,8,10a,11-tetrahydroxy-10,12-dioxo-5,5a,6,6a,7,10,10a,12-octahydrotetracen-2-yl]amino}-2-oxoethyl)(tert-butyl)amino]carbonyl}oxy)methyl 2,2-dimethylbutanoate]
MIC (E. coli GC 1073; GC1073, read-out: MINIMAL INHIBITORY CONCENTRATION MIC, pre-incubated in Human Serum): > 64 µg/mL | MIC (E. coli GC 1073; GC1073, read-out: MINIMAL INHIBITORY CONCENTRATION MIC, pre-incubated in Mouse Serum): 4 µg/mL (≈ 5.28 µM) | MIC (E. coli GC 1073; GC1073, read-out: MINIMAL INHIBITORY CONCENTRATION MIC, pre-incubated in Water): > 64 µg/mL | MIC (E. coli GC 2270; GC2270, read-out: MINIMAL INHIBITORY CONCENTRATION MIC, pre-incubated in Human Serum): > 64 µg/mL | MIC (E. coli GC 2270; GC2270, read-out: MINIMAL INHIBITORY CONCENTRATION MIC, pre-incubated in Mouse Serum): 2 µg/mL (≈ 2.64 µM) | MIC (E. coli GC 2270; GC2270, read-out: MINIMAL INHIBITORY CONCENTRATION MIC, pre-incubated in Water): > 64 µg/mL | MIC (E. coli GC 3226; GC3226, read-out: MINIMAL INHIBITORY CONCENTRATION MIC, pre-incubated in Human Serum): > 64 µg/mL | MIC (E. coli GC 3226; GC3226, read-out: MINIMAL INHIBITORY CONCENTRATION MIC, pre-incubated in Mouse Serum): 4 µg/mL (≈ 5.28 µM) | MIC (E. coli GC 3226; GC3226, read-out: MINIMAL INHIBITORY CONCENTRATION MIC, pre-incubated in Water): > 64 µg/mL | MIC (E. coli GC 2271; GC2271, read-out: MINIMAL INHIBITORY CONCENTRATION MIC, pre-incubated in Human Serum): > 64 µg/mL | MIC (E. coli GC 2271; GC2271, read-out: MINIMAL INHIBITORY CONCENTRATION MIC, pre-incubated in Mouse Serum): 2 µg/mL (≈ 2.64 µM) | MIC (E. coli GC 2271; GC2271, read-out: MINIMAL INHIBITORY CONCENTRATION MIC, pre-incubated in Water): > 64 µg/mL | MIC (E. coli GC 2233; GC2233, read-out: MINIMAL INHIBITORY CONCENTRATION MIC, pre-incubated in Human Serum): > 64 µg/mL | MIC (E. coli GC 2233; GC2233, read-out: MINIMAL INHIBITORY CONCENTRATION MIC, pre-incubated in Mouse Serum): 2 µg/mL (≈ 2.64 µM) | MIC (E. coli GC 2233; GC2233, read-out: MINIMAL INHIBITORY CONCENTRATION MIC, pre-incubated in Water): > 64 µg/mL | MIC (E. coli; 20 h, read-out: Range of MIC, E. coli (Mouse Serum)): 2 to 8 µg/mL (≈ 2.64 to 10.6 µM) | MIC (E. coli; read-out: Minimum inhibitory concentration (MIC), E. coli (Human Serum)): > 64 µg/mL | MIC (E. coli; read-out: Minimum inhibitory concentration (MIC), E. coli (water)): > 64 µg/mL | MIC (E. coli; read-out: Range of MIC, E. coli (Water)): > 64 µg/mL | MIC (E. coli GC 2236; GC2236, read-out: MINIMAL INHIBITORY CONCENTRATION MIC, pre-incubated in Human Serum): > 64 µg/mL | MIC (E. coli GC 2236; GC2236, read-out: MINIMAL INHIBITORY CONCENTRATION MIC, pre-incubated in Mouse Serum): 2 µg/mL (≈ 2.64 µM) | MIC (E. coli GC 2236; GC2236, read-out: MINIMAL INHIBITORY CONCENTRATION MIC, pre-incubated in Water): > 64 µg/mL | MIC (S. pyogenes GC 4563; GC4563, read-out: MINIMAL INHIBITORY CONCENTRATION MIC, pre-incubated in Human Serum): 4 µg/mL (≈ 5.28 µM) | MIC (S. pyogenes GC 4563; GC4563, read-out: MINIMAL INHIBITORY CONCENTRATION MIC, pre-incubated in Mouse Serum): 1 µg/mL (≈ 1.32 µM) | MIC (S. pyogenes GC 4563; GC4563, read-out: MINIMAL INHIBITORY CONCENTRATION MIC, pre-incubated in Water): 2 µg/mL (≈ 2.64 µM) | MIC (Staph.; MRSA, read-out: Range of MIC, Staph (Mouse Serum)): 2 µg/mL (≈ 2.64 µM) | MIC (Staph.; MRSA, read-out: Range of MIC, Staph (Water)): 2 to 4 µg/mL (≈ 2.64 to 5.28 µM) | MIC (Staph.; read-out: Minimum inhibitory concentration (MIC), Staph (Human Serum)): 2 to 4 µg/mL (≈ 2.64 to 5.28 µM) | MIC (Staph.; read-out: Minimum inhibitory concentration (MIC), Staph (Water)): 2 to 4 µg/mL (≈ 2.64 to 5.28 µM) | MIC (S. aureus GC 6335; GC6335, read-out: MINIMAL INHIBITORY CONCENTRATION MIC, pre-incubated in Human Serum): 4 µg/mL (≈ 5.28 µM) | MIC (S. aureus GC 6335; GC6335, read-out: MINIMAL INHIBITORY CONCENTRATION MIC, pre-incubated in Mouse Serum): 2 µg/mL (≈ 2.64 µM) | MIC (S. aureus GC 6335; GC6335, read-out: MINIMAL INHIBITORY CONCENTRATION MIC, pre-incubated in Water): 4 µg/mL (≈ 5.28 µM) | MIC (E. faecium GC 4556; GC4556, read-out: MINIMAL INHIBITORY CONCENTRATION MIC, pre-incubated in Human Serum): 4 µg/mL (≈ 5.28 µM) | MIC (E. faecium GC 4556; GC4556, read-out: MINIMAL INHIBITORY CONCENTRATION MIC, pre-incubated in Mouse Serum): 2 µg/mL (≈ 2.64 µM) | MIC (E. faecium GC 4556; GC4556, read-out: MINIMAL INHIBITORY CONCENTRATION MIC, pre-incubated in Water): 4 µg/mL (≈ 5.28 µM) | MIC (S. aureus GC 1079; GC1079, read-out: MINIMAL INHIBITORY CONCENTRATION MIC, pre-incubated in Human Serum): 2 µg/mL (≈ 2.64 µM) | MIC (S. aureus GC 1079; GC1079, read-out: MINIMAL INHIBITORY CONCENTRATION MIC, pre-incubated in Mouse Serum): 2 µg/mL (≈ 2.64 µM) | MIC (S. aureus GC 1079; GC1079, read-out: MINIMAL INHIBITORY CONCENTRATION MIC, pre-incubated in Water): 4 µg/mL (≈ 5.28 µM) | MIC (E. faecium GC 2243; GC2243, read-out: MINIMAL INHIBITORY CONCENTRATION MIC, pre-incubated in Human Serum): 4 µg/mL (≈ 5.28 µM) | MIC (E. faecium GC 2243; GC2243, read-out: MINIMAL INHIBITORY CONCENTRATION MIC, pre-incubated in Mouse Serum): 2 µg/mL (≈ 2.64 µM) | MIC (E. faecium GC 2243; GC2243, read-out: MINIMAL INHIBITORY CONCENTRATION MIC, pre-incubated in Water): 4 µg/mL (≈ 5.28 µM) | MIC (c. albicans GC 3066; Candida albicans, GC3066, read-out: MINIMAL INHIBITORY CONCENTRATION MIC): > 64 µg/mL | MINIMAL INHIBITORY CONCENTRATION MIC (c. albicans GC 3066; pre-incubated in Human Serum): >64 UG/ML | MINIMAL INHIBITORY CONCENTRATION MIC (c. albicans GC 3066; pre-incubated in Mouse Serum): >64 UG/ML | MIC (S. aureus GC 6469; GC6469, read-out: MINIMAL INHIBITORY CONCENTRATION MIC, pre-incubated in Human Serum): 2 µg/mL (≈ 2.64 µM) | MIC (S. aureus GC 6469; GC6469, read-out: MINIMAL INHIBITORY CONCENTRATION MIC, pre-incubated in Mouse Serum): 2 µg/mL (≈ 2.64 µM) | MIC (S. aureus GC 6469; GC6469, read-out: MINIMAL INHIBITORY CONCENTRATION MIC, pre-incubated in Water): 4 µg/mL (≈ 5.28 µM) | MIC (S. agalactiae GC 4564; GC4564, read-out: MINIMAL INHIBITORY CONCENTRATION MIC, pre-incubated in Human Serum): 4 µg/mL (≈ 5.28 µM) | MIC (S. agalactiae GC 4564; GC4564, read-out: MINIMAL INHIBITORY CONCENTRATION MIC, pre-incubated in Mouse Serum): 1 µg/mL (≈ 1.32 µM) | MIC (S. agalactiae GC 4564; GC4564, read-out: MINIMAL INHIBITORY CONCENTRATION MIC, pre-incubated in Water): 4 µg/mL (≈ 5.28 µM) | MIC (E. coli GC 2235; GC2235, read-out: MINIMAL INHIBITORY CONCENTRATION MIC, pre-incubated in Human Serum): > 64 µg/mL | MIC (E. coli GC 2235; GC2235, read-out: MINIMAL INHIBITORY CONCENTRATION MIC, pre-incubated in Mouse Serum): 2 µg/mL (≈ 2.64 µM) | MIC (E. coli GC 2235; GC2235, read-out: MINIMAL INHIBITORY CONCENTRATION MIC, pre-incubated in Water): > 64 µg/mL | MIC (S. typhimurium GC 2172; read-out: MINIMAL INHIBITORY CONCENTRATION MIC, pre-incubated in Human Serum): > 64 µg/mL | MIC (S. typhimurium GC 2172; read-out: MINIMAL INHIBITORY CONCENTRATION MIC, pre-incubated in Mouse Serum): 8 µg/mL (≈ 10.6 µM) | MIC (S. typhimurium GC 2172; read-out: MINIMAL INHIBITORY CONCENTRATION MIC, pre-incubated in Water): > 64 µg/mL | MIC (E. faecalis GC 2265; GC2265, read-out: MINIMAL INHIBITORY CONCENTRATION MIC, pre-incubated in Human Serum): 2 µg/mL (≈ 2.64 µM) | MIC (E. faecalis GC 2265; GC2265, read-out: MINIMAL INHIBITORY CONCENTRATION MIC, pre-incubated in Mouse Serum): 2 µg/mL (≈ 2.64 µM) | MIC (E. faecalis GC 2265; GC2265, read-out: MINIMAL INHIBITORY CONCENTRATION MIC, pre-incubated in Water): 4 µg/mL (≈ 5.28 µM) | MIC (E. faecalis GC 4555; GC4555, read-out: MINIMAL INHIBITORY CONCENTRATION MIC, pre-incubated in Human Serum): 4 µg/mL (≈ 5.28 µM) | MIC (E. faecalis GC 4555; GC4555, read-out: MINIMAL INHIBITORY CONCENTRATION MIC, pre-incubated in Mouse Serum): 2 µg/mL (≈ 2.64 µM) | MIC (E. faecalis GC 4555; GC4555, read-out: MINIMAL INHIBITORY CONCENTRATION MIC, pre-incubated in Water): 4 µg/mL (≈ 5.28 µM)
